Measured values from ChEMBL document CHEMBL4118122, “Identification and biological evaluation of thiazole-based inverse agonists of RORγt” (Bioorg Med Chem Lett, 2018).
pIC50: −log10 of the molar value.

Key:
[1] = molecular target: T1, Neurotensin receptor type 1 (Homo sapiens, UniProt P30989); test: Displacement of [125I]Tyr3-neurotensin from human recombinant NTS1 receptor at 1 uM after 120 mins by scintillation counting analysis relative to control
[2] = molecular target: Mitogen-activated protein kinase 3 (Homo sapiens) (UniProt P27361); test: Inhibition of recombinant full length GST-tagged human ERK1 expressed in Escherichia coli at 10 uM in presence of ATP relative to control
[3] = molecular target: T2, Melanocortin receptor 4 (Homo sapiens, UniProt P32245); test: Displacement of [125I]NDP-alpha -MSH from human recombinant MC4 receptor after 120 mins by scintillation counting analysis
T2 sequence (P32245 whole entry): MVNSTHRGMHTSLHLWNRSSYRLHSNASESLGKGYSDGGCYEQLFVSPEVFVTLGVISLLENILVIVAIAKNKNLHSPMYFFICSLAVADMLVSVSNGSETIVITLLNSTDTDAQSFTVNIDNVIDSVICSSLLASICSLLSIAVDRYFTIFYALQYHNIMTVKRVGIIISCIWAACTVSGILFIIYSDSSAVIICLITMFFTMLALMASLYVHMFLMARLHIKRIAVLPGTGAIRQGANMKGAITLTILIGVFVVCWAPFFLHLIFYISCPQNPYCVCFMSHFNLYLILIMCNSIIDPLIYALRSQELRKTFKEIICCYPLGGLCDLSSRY

[4] = molecular target: Beta-1 adrenergic receptor (Homo sapiens, UniProt P08588); test: Displacement of [3H](-)CGP 12177 from human beta1 adrenoceptor after 60 mins by scintillation counting analysis
[5] = molecular target: T3, Somatostatin receptor (Mus musculus) (UniProt P30935+O08858+P30875+P30873+P49660); test: Displacement of [125I]Tyr11-somatostatin-14 from mouse SST receptor at 10 uM after 60 mins by scintillation counting analysis relative to control; format: protein assay
T3 sequence (P30935 whole entry, the tested form may be a part): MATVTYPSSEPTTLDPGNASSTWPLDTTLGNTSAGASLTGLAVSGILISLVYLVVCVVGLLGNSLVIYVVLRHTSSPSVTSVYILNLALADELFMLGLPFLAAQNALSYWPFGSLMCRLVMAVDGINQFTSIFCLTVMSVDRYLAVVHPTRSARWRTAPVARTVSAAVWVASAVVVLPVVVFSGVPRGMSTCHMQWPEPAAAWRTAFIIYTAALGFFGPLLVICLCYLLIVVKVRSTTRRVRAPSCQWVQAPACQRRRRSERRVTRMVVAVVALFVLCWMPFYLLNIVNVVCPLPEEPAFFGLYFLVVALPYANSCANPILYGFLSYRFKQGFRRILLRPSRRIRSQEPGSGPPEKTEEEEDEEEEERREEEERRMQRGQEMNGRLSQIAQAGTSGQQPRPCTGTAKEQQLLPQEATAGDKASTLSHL
T3 sequence (O08858 whole entry, the tested form may be a part): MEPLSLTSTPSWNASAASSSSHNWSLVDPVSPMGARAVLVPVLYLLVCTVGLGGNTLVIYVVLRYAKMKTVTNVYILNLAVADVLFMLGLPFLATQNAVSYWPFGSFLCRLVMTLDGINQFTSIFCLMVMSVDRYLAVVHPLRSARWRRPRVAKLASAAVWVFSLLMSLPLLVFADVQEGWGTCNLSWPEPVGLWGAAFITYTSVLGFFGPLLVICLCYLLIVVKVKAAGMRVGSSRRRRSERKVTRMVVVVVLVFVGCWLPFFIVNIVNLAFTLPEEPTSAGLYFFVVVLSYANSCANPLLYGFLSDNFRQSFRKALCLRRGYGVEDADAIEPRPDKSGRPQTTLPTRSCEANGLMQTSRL
T3 sequence (P30875 whole entry, the tested form may be a part): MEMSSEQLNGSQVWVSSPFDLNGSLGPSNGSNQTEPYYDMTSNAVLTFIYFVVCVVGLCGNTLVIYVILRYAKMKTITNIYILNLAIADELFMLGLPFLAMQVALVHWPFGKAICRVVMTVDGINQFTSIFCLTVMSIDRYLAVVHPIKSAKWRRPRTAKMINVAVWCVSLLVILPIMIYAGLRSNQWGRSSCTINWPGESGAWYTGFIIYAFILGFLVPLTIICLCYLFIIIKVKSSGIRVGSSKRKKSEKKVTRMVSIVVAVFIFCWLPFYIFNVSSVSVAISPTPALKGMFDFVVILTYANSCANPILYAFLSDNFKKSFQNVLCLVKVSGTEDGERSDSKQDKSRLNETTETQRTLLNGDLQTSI
T3 sequence (P30873 whole entry, the tested form may be a part): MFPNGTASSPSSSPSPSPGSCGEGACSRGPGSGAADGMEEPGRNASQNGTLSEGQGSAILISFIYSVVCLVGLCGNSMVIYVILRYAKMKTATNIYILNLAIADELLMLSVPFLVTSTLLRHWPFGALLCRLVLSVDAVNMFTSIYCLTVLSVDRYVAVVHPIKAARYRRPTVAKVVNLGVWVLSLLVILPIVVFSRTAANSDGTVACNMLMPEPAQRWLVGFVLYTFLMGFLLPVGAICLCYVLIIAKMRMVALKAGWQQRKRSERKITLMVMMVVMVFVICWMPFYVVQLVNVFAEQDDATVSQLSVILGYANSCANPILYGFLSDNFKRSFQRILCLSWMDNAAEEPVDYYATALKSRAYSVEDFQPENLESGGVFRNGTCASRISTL
T3 sequence (P49660 with tags, fused parts or gaps): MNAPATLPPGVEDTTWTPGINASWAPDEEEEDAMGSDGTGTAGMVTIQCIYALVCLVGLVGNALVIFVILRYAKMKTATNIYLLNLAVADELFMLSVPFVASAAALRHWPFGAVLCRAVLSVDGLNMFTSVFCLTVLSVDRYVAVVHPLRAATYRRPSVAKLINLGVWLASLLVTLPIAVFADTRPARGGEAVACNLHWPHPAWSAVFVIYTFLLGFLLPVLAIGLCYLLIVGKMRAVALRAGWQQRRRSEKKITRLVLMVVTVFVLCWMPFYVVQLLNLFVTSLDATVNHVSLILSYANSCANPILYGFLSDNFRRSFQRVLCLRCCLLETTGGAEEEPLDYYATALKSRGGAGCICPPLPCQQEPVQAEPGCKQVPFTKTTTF

[6] = molecular target: Epidermal growth factor receptor (Homo sapiens) (UniProt P00533); test: Inhibition of recombinant GST-tagged human EGFR (668 to 1210 residues) expressed in baculovirus expression system at 10 uM in presence of ATP relative to control
[7] = molecular target: Endothelin-1 receptor (Homo sapiens) (UniProt P25101); test: Displacement of [125I]-endothelin-1 from human recombinant ETA receptor at 10 uM after 120 mins by scintillation counting analysis relative to control
[8] = molecular target: 5-hydroxytryptamine receptor 2B (Homo sapiens, UniProt P41595); test: Displacement of [125I]+/-DOI from human recombinant 5-HT2B receptor at 10 uM after 60 mins by scintillation counting analysis relative to control
[9] = Binding affinity to GABA-gated chloride channel (unknown origin) by antagonist radioligand binding assay; design: species or system Homo sapiens
[10] = molecular target: T3, Somatostatin receptor (Mus musculus); test: Displacement of [125I]Tyr11-somatostatin-14 from mouse SST receptor at 1 uM after 60 mins by scintillation counting analysis relative to control; format: protein assay
[11] = Half life in Sprague-Dawley rat at 1 mg/kg, iv; format: ADME, organism-based; conditions: in vivo
[12] = Cmax in Sprague-Dawley rat at 5 mg/kg, po; format: ADME, organism-based; design: dose 5 mg/kg, route oral; conditions: in vivo
[13] = molecular target: Death-associated protein kinase 3 (Homo sapiens) (UniProt O43293); test: Inhibition of recombinant full length GST-tagged human ZIPK expressed in baculovirus expression system at 10 uM in presence of ATP relative to control
[14] = molecular target: Delta-type opioid receptor (Homo sapiens, UniProt P41143); test: Displacement of [3H]DADLE from human recombinant delta opioid receptor at 10 uM after 60 mins by scintillation counting analysis relative to control
[15] = AUC (0 to infinity) in Sprague-Dawley rat at 5 mg/kg, po; format: ADME, organism-based; design: dose 5 mg/kg, route oral, time infinity; conditions: in vivo
[16] = molecular target: Insulin-like growth factor 1 receptor (Homo sapiens) (UniProt P08069); test: Inhibition of recombinant His-tagged human IGF1R cytoplasmic domain (960 to […] residues) expressed in baculovirus expression system at 10 uM in presence of ATP relative to control
Sequence of Insulin-like growth factor 1 receptor (Homo sapiens) (P08069 31-736 limits assumed): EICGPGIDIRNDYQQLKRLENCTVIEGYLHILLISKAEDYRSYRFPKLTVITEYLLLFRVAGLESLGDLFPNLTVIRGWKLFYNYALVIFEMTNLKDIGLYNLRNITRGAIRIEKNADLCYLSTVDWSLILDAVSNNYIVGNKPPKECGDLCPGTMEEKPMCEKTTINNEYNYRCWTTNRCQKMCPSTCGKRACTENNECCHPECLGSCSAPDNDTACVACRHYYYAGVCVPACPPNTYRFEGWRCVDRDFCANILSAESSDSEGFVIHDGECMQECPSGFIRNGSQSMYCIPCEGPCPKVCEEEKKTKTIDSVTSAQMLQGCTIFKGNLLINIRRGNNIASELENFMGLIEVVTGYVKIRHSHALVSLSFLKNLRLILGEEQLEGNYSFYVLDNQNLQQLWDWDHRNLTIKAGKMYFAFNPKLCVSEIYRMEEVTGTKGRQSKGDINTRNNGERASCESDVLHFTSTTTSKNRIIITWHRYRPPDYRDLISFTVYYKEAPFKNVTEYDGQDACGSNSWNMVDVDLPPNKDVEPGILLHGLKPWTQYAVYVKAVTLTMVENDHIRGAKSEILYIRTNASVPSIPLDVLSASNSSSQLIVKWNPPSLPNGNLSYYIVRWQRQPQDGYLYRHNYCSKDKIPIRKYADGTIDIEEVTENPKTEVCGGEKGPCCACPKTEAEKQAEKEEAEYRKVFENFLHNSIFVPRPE
Sequence of Insulin-like growth factor 1 receptor (Homo sapiens) (P08069 741-1367 limits assumed): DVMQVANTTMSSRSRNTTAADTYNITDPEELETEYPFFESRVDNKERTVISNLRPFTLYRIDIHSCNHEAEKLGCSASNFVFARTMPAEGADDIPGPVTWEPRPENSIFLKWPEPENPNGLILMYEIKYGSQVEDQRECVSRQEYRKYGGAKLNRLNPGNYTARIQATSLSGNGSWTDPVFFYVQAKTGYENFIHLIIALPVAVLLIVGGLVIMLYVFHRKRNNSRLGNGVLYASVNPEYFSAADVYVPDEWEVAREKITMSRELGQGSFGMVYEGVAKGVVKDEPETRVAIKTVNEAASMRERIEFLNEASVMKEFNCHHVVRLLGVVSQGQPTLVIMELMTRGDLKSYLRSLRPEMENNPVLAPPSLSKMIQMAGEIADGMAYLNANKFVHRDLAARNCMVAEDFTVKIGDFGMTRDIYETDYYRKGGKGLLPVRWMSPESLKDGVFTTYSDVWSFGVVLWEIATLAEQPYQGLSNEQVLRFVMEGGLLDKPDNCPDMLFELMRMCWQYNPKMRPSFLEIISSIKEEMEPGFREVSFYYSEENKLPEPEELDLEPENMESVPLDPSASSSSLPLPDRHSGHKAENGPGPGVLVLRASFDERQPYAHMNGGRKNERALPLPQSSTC

[17] = molecular target: D(2) dopamine receptor (Homo sapiens, UniProt P14416); test: Displacement of [3H]7-OH-DPAT from human recombinant dopamine D2S receptor after 60 mins by scintillation counting analysis
[18] = molecular target: T1, Neurotensin receptor type 1; test: Displacement of [125I]Tyr3-neurotensin from human recombinant NTS1 receptor after 120 mins by scintillation counting analysis
[19] = Thermodynamic solubility of the compound in 30 mM phosphate buffer at 10 mM at pH 7 after 2 to 5 days by UV-HPLC analysis; format: physicochemical; conditions: read-out: Therm_solubility
[20] = molecular target: Serine/threonine-protein kinase Nek2 (Homo sapiens) (UniProt P51955); test: Inhibition of recombinant full length His-tagged human NEK2 expressed in baculovirus expression system at 10 uM in presence of ATP relative to control
[21] = molecular target: Substance-K receptor (Homo sapiens) (UniProt P21452); test: Displacement of [125I]NKA from human recombinant NK2 receptor at 10 uM after 60 mins by scintillation counting analysis relative to control
Sequence of Substance-K receptor (Homo sapiens) (P21452 whole entry): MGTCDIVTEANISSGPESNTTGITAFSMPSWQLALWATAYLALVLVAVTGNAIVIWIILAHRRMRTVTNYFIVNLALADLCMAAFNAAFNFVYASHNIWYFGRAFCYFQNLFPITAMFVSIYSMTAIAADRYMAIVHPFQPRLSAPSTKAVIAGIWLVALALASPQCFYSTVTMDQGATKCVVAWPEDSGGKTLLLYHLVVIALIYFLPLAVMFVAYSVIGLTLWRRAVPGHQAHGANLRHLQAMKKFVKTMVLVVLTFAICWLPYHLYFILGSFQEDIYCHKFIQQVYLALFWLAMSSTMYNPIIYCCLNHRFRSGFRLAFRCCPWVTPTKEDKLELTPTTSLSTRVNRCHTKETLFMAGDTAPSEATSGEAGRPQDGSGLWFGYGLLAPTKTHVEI

[22] = molecular target: Serine/threonine-protein kinase Chk2 (Homo sapiens) (UniProt O96017); test: Inhibition of recombinant full length His-tagged human CHK2 expressed in baculovirus expression system at 10 uM in presence of ATP relative to control
[23] = molecular target: Ribosomal protein S6 kinase alpha-2 (Homo sapiens) (UniProt Q15349); test: Inhibition of recombinant full length GST-tagged human RSK3 expressed in insect cells at 10 uM in presence of ATP relative to control
[24] = molecular target: Receptor-type tyrosine-protein kinase FLT3 (Homo sapiens) (UniProt P36888); test: Inhibition of recombinant His-tagged human FLT3 (564 to 958 residues) cytoplasmic domain expressed in baculovirus expression system at 10 uM in presence of ATP relative to control
[25] = molecular target: Vasopressin V1a receptor (Homo sapiens, UniProt P37288); test: Displacement of [3H]AVP from human recombinant V1a receptor at 1 uM after 60 mins by scintillation counting analysis relative to control
Sequence of Vasopressin V1a receptor (P37288 whole entry, looked up): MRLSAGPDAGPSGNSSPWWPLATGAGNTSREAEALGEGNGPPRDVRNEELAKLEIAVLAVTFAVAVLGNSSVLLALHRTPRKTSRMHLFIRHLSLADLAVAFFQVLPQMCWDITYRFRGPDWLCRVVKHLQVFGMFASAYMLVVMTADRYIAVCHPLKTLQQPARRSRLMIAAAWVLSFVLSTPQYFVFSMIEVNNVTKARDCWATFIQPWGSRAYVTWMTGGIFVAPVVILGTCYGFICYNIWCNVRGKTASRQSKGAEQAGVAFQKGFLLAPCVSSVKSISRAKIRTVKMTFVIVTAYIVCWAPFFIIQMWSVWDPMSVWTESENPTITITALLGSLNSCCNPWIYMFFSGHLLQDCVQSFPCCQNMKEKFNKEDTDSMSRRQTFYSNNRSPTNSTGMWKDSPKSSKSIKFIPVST

[26] = molecular target: Cholecystokinin receptor type A (Homo sapiens, UniProt P32238); test: Displacement of [125I]CCK-8s from human recombinant CCK1 receptor after 60 mins by scintillation counting analysis
[27] = AUC (0 to infinity) in Sprague-Dawley rat at 1 mg/kg, iv; format: ADME, organism-based; design: dose 1 mg/kg, time infinity, route intravenous; conditions: in vivo
[28] = molecular target: Cholecystokinin receptor type A (Homo sapiens) (UniProt P32238); test: Displacement of [125I]CCK-8s from human recombinant CCK1 receptor at 1 uM after 60 mins by scintillation counting analysis relative to control
[29] = molecular target: T1, Neurotensin receptor type 1; test: Displacement of [125I]Tyr3-neurotensin from human recombinant NTS1 receptor at 10 uM after 120 mins by scintillation counting analysis relative to control
[30] = molecular target: T2, Melanocortin receptor 4; test: Displacement of [125I]NDP-alpha -MSH from human recombinant MC4 receptor at 10 uM after 120 mins by scintillation counting analysis relative to control
[31] = molecular target: Vasoactive intestinal polypeptide receptor 1 (Homo sapiens) (UniProt P32241); test: Displacement of [125I]VIP from human recombinant VPAC1 receptor at 10 uM after 60 mins by scintillation counting analysis relative to control
[32] = molecular target: Histamine H2 receptor (Homo sapiens, UniProt P25021); test: Displacement of [125I]APT from human recombinant histamine H2 receptor at 10 uM after 120 mins by scintillation counting analysis relative to control
[33] = molecular target: Substance-K receptor (Homo sapiens) (UniProt P21452); test: Displacement of [125I]NKA from human recombinant NK2 receptor at 1 uM after 60 mins by scintillation counting analysis relative to control
[34] = Volume of distribution at steady state in Sprague-Dawley rat at 1 mg/kg, iv; format: ADME, organism-based; conditions: in vivo, read-out: Vdss

T1 sequence (P30989 whole entry): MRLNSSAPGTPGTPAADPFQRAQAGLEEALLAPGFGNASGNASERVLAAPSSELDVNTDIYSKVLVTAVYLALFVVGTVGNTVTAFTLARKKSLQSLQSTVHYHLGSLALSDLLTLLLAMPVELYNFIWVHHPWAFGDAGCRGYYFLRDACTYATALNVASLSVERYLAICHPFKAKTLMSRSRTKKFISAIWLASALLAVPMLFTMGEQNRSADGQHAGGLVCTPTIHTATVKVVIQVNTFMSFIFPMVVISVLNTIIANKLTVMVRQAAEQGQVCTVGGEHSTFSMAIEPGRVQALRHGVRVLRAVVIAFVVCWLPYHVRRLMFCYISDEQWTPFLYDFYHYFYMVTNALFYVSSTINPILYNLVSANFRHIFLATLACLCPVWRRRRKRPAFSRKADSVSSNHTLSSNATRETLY

## CC(C)(C)NS(=O)(=O)c1ccc(-c2sc(C(=O)N[C@H]3C[C@H](C(=O)O)C3)nc2CC2CCCCC2)c2ccccc12
[1]
  inhibition: < 10%
[2]
  inhibition: -7%
[3]
  pIC50: 9.68
[4]
  pIC50: 6.53
[5]
  inhibition: < 10%
[6]
  inhibition: -3%
[7]
  inhibition: < 10%
[8]
  inhibition: < 10%
[9]
  pIC50: 6.66
[10]
  inhibition: < 10%
[11]
  half-life: 42 min
[12]
  Cmax: 130 ng/mL
[13]
  inhibition: -5%
[14]
  inhibition: 22%
[15]
  AUC(0-inf): 328 ng·h/mL
[16]
  inhibition: -10%
[17]
  pIC50: 8.74
[18]
  pIC50: 9.60
[19]
  solubility thermodynamic at 10000 µM: < 1 µM
[20]
  inhibition: -6%
[21]
  inhibition: < 10%
[22]
  inhibition: -1%
[23]
  inhibition: -4%
[24]
  inhibition: 0%
[25]
  inhibition: < 10%
[26]
  pIC50: 9.92
[27]
  AUC(0-inf): 325 ng·h/mL
[28]
  inhibition: < 10%
[29]
  inhibition: < 10%
[30]
  inhibition: 25%
[31]
  inhibition: < 10%
[32]
  inhibition: < 10%
[33]
  inhibition: < 10%
[34]
  Vd: 1.1 L/kg
